Entries after “also recorded” stand apart in the source; their conditions may differ. Like-named read-outs stand apart in the source and are kept apart here.
Key:
[1] = tested on: human melanoma and breast cancer cell lines; assay: Cytotoxicity, all tested cell lines of Table 1; assay type: cell-based; conditions: Homo sapiens, melanoma and breast lines of Table 1; read-out: IC50 values, range over all tested cell lines
PANC-1 = assay: Cytotoxicity assay (MTS, 72 h); assay type: cell-based; conditions: Homo sapiens
Procedure: Mia PaCa-2 and PANC-1 cells were seeded in 96-well plates at 4000 and 5000 cells per well, respectively.
Cytotoxicity Assay. […] Each experiment consisted of four replicates.

M14 = assay: Cytotoxicity assay (MTS, 72 h); conditions: Homo sapiens
[2] = tested on: taxane-resistant melanoma, breast, and lung cancer cells; assay: Cytotoxicity, regular and taxane-resistant lines of Table 2; assay type: cell-based; conditions: Homo sapiens
MDA-MB-231 = assay: Cytotoxicity assay (MTS, 72 h); assay type: cell-based; conditions: Homo sapiens
RPMI-7951 = assay: Cytotoxicity assay (MTS, 72 h); assay type: cell-based; conditions: Homo sapiens, Table 1, read-out: IC50 (nM) Melanoma RPMI-7951
[3] = tested on: A2780/TxR ovarian cancer xenografts; assay: Orthotopic A2780/TxR ovarian cancer xenograft model; conditions: 5m 1 mg/kg IV; Compound 17ya 20 mg/kg PO; 3 weeks
in vitro [4] = conditions: human, liver microsomes
A375/TxR = assay: Cytotoxicity assay (MTS, 72 h); assay type: cell-based; conditions: Homo sapiens, read-out: IC50 ± SEM (nM) A375/TxR
A375/TxR cells [5] = assay: Clonogenic assay; assay type: cell-based, human; conditions: 7 days
Procedure: In case of clonogenic assay, A375/TxR cells were seeded in 6-well plates at very low concentration (1000 cells/well). […] Medium was replaced with fresh drug once during the treatment. Cells were then fixed with cold methanol and stained with 0.5% crystal violet. Colony area density was quantified using the Keyence Hybrid Cell Count module.
Cell proliferation inhibition assay: The cell proliferation inhibitory effects of tested compounds were first determined through MTS assay as previously described. In short, 3000 to 7500 cells were added to a 96-well cell culture plate followed by the treatment of the test compounds (0.1 nM to 3 μM) in quadruplicate after seeding and overnight incubation. After 72 hours of treatment, MTS (Promega) was added to the wells and the absorbance was measured at […] after incubating for 1.5 to 2 h. […] Briefly, A375/TxR cells (1000 cells/well) were treated with growth medium containing 0.5 nM, 1 nM, or 2 nM of 5v and incubated for over 7 days (the incubation medium was changed every 3 days). After fixing and staining with 0.5% crystal violet, the cell colonies were quantified by the Hybrid Counting module of the Keyence BZ-X700 microscope. The assay was performed in triplicate.

MDA-MB-453 = assay: Cytotoxicity assay (MTS, 72 h); assay type: cell-based, human; conditions: Homo sapiens, MDA-MB-453
MDA-MB-231/TxR = assay: Cytotoxicity assay (MTS, 72 h); assay type: cell-based; conditions: Homo sapiens
logP = assay type: physicochemical; conditions: Table 1; method not described
[6] = Microsomal stability assay; conditions: Table 3; liver microsomes; mean (% CV)
M14/LCC6MDR1 = assay: Cytotoxicity assay (MTS, 72 h); assay type: cell-based; conditions: Homo sapiens, read-out: IC50 ± SEM (nM) M14/LCC6MDR1
DU-145/VxR = assay: Cytotoxicity assay (MTS, 72 h); assay type: cell-based; conditions: Homo sapiens, DU-145, read-out: IC50 ± SEM (nM) DU-145/VXR
A375/TxR cells [7] = assay: Wound healing (scratch) assay; assay type: cell-based, human
Procedure: Scratch-wound assay: The anti-migration effect of 5v was determined by a scratch-wound assay using an IncuCyte S3 live-cell imager as previously reported. After overnight incubation, the monolayers of A375/TxR cells were scratched by a WoundMaker (Essen BioScience) and the cells were treated with 5v (0.5 nM, 1 nM, 2 nM, and 5 nM) for 48 h. The wounds were imaged every 2 h by IncuCyte and the relative wound density was calculated by IncuCyte Scratch Wound Software Module. The assay was performed in quadruplicate.

MDA-MB-231/VxR = assay: Cytotoxicity assay (MTS, 72 h); assay type: cell-based; conditions: Homo sapiens
in vitro [8] = conditions: mouse, liver microsomes
A375/TxR xenografts = assay: In vivo A375/TxR melanoma xenograft model; design: species or system NSG mice; conditions: for decrease in tumor weight vs vehicle group / tumor reduction / tumor growth inhibition vs control: 2 times per week
MDA-MB-468 = assay: Cytotoxicity assay (MTS, 72 h); assay type: cell-based, human; conditions: Homo sapiens, MDA-MB-468; Table 1; read-out: IC50 (nM) Breast MDA-MB-468
[9] = M14, read-out: IC50 (nM) Melanoma M14
[10] = M14, read-out: IC50 ± SEM (nM) M14
[11] = taxane-resistant melanoma, breast, and lung cancer cells, read-out: IC50 values, range against taxane-resistant cells
[12] = MDA-MB-231, read-out: IC50 in MDA-MB-231 parental line
[13] = MDA-MB-231, read-out: IC50 ± SEM (nM) MDA-MB-231, Table 2
[14] = Table 1, read-out: IC50 (nM) Breast MDA-MB-453
[15] = MDA-MB-231, read-out: IC50 ± SEM (nM) MDA-MB-231/VXR
[16] = H&E and anti-human mitochondria IHC

## COc1ccc2c(c1)NC(=O)CN2c1nc(C)nc2c1CCC2 [Compound 5m, 7-methoxy-4-(2-methyl-6,7-dihydro-5H-cyclopenta[d]pyrimidin-4-yl)-3,4-dihydroquinoxalin-2(1H)-one]
[1]
  IC50: 0.4 to 26 nM
PANC-1; Example 7, FIG. 20, read-out: calculated IC50, PANC-1 cells
  IC50: 2.7 nM
M14; [9]
  IC50: 1.4 ± 0.4 nM
M14; [10]
  IC50: 1.3 ± 0.2 nM
[2]; melanoma, breast and lung cancer cell lines, read-out: IC50 values, range against regular and paclitaxel-resistant lines
  IC50: 1 to 5 nM
[2]; [11]
  IC50: 0.3 to 5 nM
MDA-MB-231; [12]
  IC50: 1 to 2.2 nM
MDA-MB-231; [13]
  IC50: 1.7 ± 0.4 nM
RPMI-7951
  IC50: 1.5 ± 0.4 nM
[3]
  mice having visible tumor: 1 of 5
In vitro [4]
  CLint scaled at 1 μg/mL: 13 mL/min/kg
A375/TxR
  IC50: 1.1 nM
A375/TxR cells [5]
  colony formation of A375/TxR cells: completely inhibited the colony formation at high dose, i.e., 2 nM
MDA-MB-453; [14]
  IC50: 0.5 ± 0.1 nM
MDA-MB-231/TxR; read-out: IC50 ± SEM (nM) MDA-MB-231/TxR
  IC50: 1.5 ± 0.3 nM
logP
  logP: 2.96
[6]
  Metabolic stability in rat t1/2: 8.0 min
  Metabolic stability in rat t1/2 (min): 7.97 (0.7) min
M14/LCC6MDR1
  IC50: 1.4 ± 0.3 nM
DU-145/VxR
  IC50: 3.7 ± 0.6 nM
A375/TxR cells [7]
  migration of A375/TxR cells: markedly inhibited the migration of A375/TxR cells
MDA-MB-231/VxR; MDA-MB-231, 72 h, read-out: IC50 in Compound 17ya resistant MDA-MD-231/VxR cells
  IC50: 1.2 to 2.9 nM
MDA-MB-231/VxR; [15]
  IC50: 2.3 ± 0.4 nM
In vitro [8]
  CLint scaled at 1 μg/mL: 48 mL/min/kg
A375/TxR xenografts; 2.5 mg/kg IV, 7 doses within 24 days
  decrease of final tumor volume vs vehicle: 64.6%
MDA-MB-468
  IC50: 1.8 ± 0.4 nM

## CCNc1nc2c(c(N3CC(=O)Nc4cc(OC)ccc43)n1)CCC2 [Compound 5v, 4-(2-(ethylamino)-6,7-dihydro-5H-cyclopenta[d]pyrimidin-4-yl)-7-methoxy-3,4-dihydroquinoxalin-2(1H)-one]
[1]
  IC50: 0.4 to 26 nM
PANC-1; Table 6, read-out: IC50 (nM) Pancreatic cancer PANC-1
  IC50: 3.7 ± 0.7 nM
M14; M14, read-out: IC50 (nM) Melanoma Cancer M14
  IC50: 1.5 ± 0.3 nM
M14; [9]
  IC50: 0.6 ± 0.1 nM
M14; [10]
  IC50: 0.3 ± 0.04 nM
[2]; [11]
  IC50: 0.3 to 5 nM
MDA-MB-231; MDA-MB-231, read-out: IC50 (nM) Breast Cancer MDA-MB-231, Table 6
  IC50: 2.6 ± 0.5 nM
MDA-MB-231; MDA-MB-231, read-out: IC50 (nM) Breast MDA-MB-231, Table 1
  IC50: 0.7 ± 0.1 nM
MDA-MB-231; [12]
  IC50: 1 to 2.2 nM
MDA-MB-231; [13]
  IC50: 1 ± 0.2 nM
RPMI-7951
  IC50: 0.5 ± 0.1 nM
In vitro [4]
  half-life at 1 μg/mL: 24.7 min
  microsomal CLint at 1 μg/mL: 28.1 µL/min/mg
A375/TxR; Table 2, paclitaxel-resistant
  IC50: 0.3 ± 0.03 nM
A375/TxR cells [5]
  colony formation of A375/TxR cells: inhibit the proliferation of A375/TxR cell colonies in a concentration-dependent manner
MDA-MB-453; [14]
  IC50: 0.43 ± 0.1 nM
MDA-MB-453; Table 6, read-out: IC50 (nM) Breast Cancer MDA-MB-453
  IC50: 1.3 ± 0.5 nM
MDA-MB-231/TxR; read-out: IC50 ± SEM (nM) MDA-MB-231/TxR, Table 2, paclitaxel-resistant
  IC50: 0.6 ± 0.1 nM
logP
  logP: 2.39
[6]
  Metabolic stability in rat t1/2: 3.6 min
M14/LCC6MDR1; Table 2, multidrug-resistant
  IC50: 0.3 ± 0.03 nM
DU-145/VxR
  IC50: 1 ± 0.1 nM
A375/TxR cells [7]
  migration of A375/TxR cells: remarkable potency in inhibiting the cell migration of A375/TxR cells
MDA-MB-231/VxR; [15]
  IC50: 1.2 ± 0.3 nM
In vitro [8]
  half-life at 1 μg/mL: 6.33 min
  microsomal CLint at 1 μg/mL: 109 µL/min/mg
A375/TxR xenografts; 2 mg/kg IV
  decrease in tumor weight vs vehicle group: 47.4%
  tumor reduction / tumor growth inhibition vs control: 62.3%
A375/TxR xenografts; 2 mg/kg or 4 mg/kg, three weeks
  toxicity to major organs (heart, kidney, spleen), H&E: no obvious damage to the major organs; also recorded: no toxicity to major organs
A375/TxR xenografts; 2 mg/kg, 4 mg/kg
  cleaved caspase-3 in tumors, IHC: significantly increased the proportion of cleaved caspase-3 positive cells
A375/TxR xenografts; 4 mg/kg IV
  decrease in tumor weight vs vehicle group: 59.9%
  tumor reduction / tumor growth inhibition vs control: 76.6%
A375/TxR xenografts; 2 and 4 mg/kg
  Ki67 and CD31 expression in tumors, IHC: significantly decreased
A375/TxR xenografts; [16]
  spontaneous liver metastasis: significant inhibition of lung or liver metastasis
  spontaneous lung metastasis: significant inhibition of lung or liver metastasis
A375/TxR xenografts; all doses tested
  mouse body weight during therapy: no body weight loss observed
A375/TxR xenografts; mouse, in vivo
  tumor necrosis, H&E: more necrotic cells in 5v-treated tumors
MDA-MB-468
  IC50: 0.8 ± 0.1 nM
